Measurements from patent publication US20060166870A1, “Treatment of glioblastoma with thymosin-alpha 1” (Rhode Island Hospital, priority 2001, published 2006).
Several values for one entry are separate records, joined by “and”; a condition that tells them apart may be missing. Equal entries are not always repeated. Entries after “also recorded” stand apart in the source; their conditions may differ. No end group written: not given here.

Assays:
9 L glioblastoma = conditions: for lympho-mononuclear inflammatory cell infiltrates in brain: histopathology, day 20
Procedure: Rat 9 L glioblastoma cells were obtained from the American Type Culture Collection (Washington, D.C.) and certified as pathogen-free. The cells were maintained in Dulbecco's Modified Eagle's Medium (DMEM) supplemented with 5% fetal calf serum (FCS) and 2 mM glutamine. Antibiotics were not added to the medium. Prior to injection, the cells were rinsed with phosphate-buffered saline (PBS), detached from the culture surfaces and dissociated into single cell suspensions with 0.25% trypsin/0.05% EDTA. The dissociated cells were washed 3 times in serum-free DMEM and finally suspended in serum-free DMEM at a density of 5×10^6 viable cells/ml. Viable cell density was determined using Trypan blue exclusion and a hemocytometer chamber.
An in vivo model of glioblastoma was generated in adult (250-300 grams) Long Evans rats. Rats were anesthetized with a single intraperitoneal injection of a cocktail containing 100 mg/kg ketamine and […] in 50% ethanol. After anesthetization, the head was shaved and prepped with povidone iodine, and the rat was placed in a stereotactic headframe. A midline incision was made and a 3 mm burr hole was drilled over the frontal lobe, and 2 μl of 9 L glioma cell suspension (10,000 cells total) was injected directly into the brain using a Hamilton syringe with attached 26-gauge needle placed at a depth of 3.5 mm. After removal of the needle, the wound was washed with sterile saline, the animal was removed from the frame and the skin was closed with resorbable sutures. The rats were returned to their cages and observed for any signs of deterioration including weight loss, reduced food and water intake, hemiparesis, seizures, or inactivity. If any degree of suffering was observed, the animals were euthanized with 120 mg/kg sodium pentobarbital. Animals were observed daily and weighed weekly.
The tumor was allowed to develop for 5 days, followed by anti-neoplastic treatment. Rats were divided into 6 treatment groups: vehicle control; low (45 μg/kg) thymalfasin; high (200 μg/kg) thymalfasin; low thymalfasin+BCNU; high thymalfasin+BCNC; and BCNU (9.4 mg/kg) only. BCNU was administered as a single intraperitoneal (I.P.) injection on day 6 after the intracerebral tumor inoculation. Rats treated with thymalfasin were given single I.P. injections of thymalfasin for 3 consecutive days, beginning on day 6 after tumor cell inoculation. Rats were sacrificed on day 20 post tumor inoculation. The rats were killed by I.P. injection of 120 mg/kg sodium pentobarbital. The brains were harvested, sectioned, immersion fixed in Histochoice (Amresco Co., Solon, Ohio), and processed for paraffin embedding. Tumor burden was assessed from the gross tissue blocks and the histological sections stained with hematoxylin and eosin. Histological sections were also used in immunohistochemical staining studies to detect inflammatory cell infiltrates.
A semiquantitative histological grading scale was used to assess tumor burden for inter-group comparisons: 0—cure, no residual tumor; 1—microscopic tumor (<1 mm) confined to the superficial cortex; 2—tumor mass occupying less than 25% of the hemisphere cross section (1-2 mm); 3—tumor mass occupying up to 50% of the hemisphere cross section (2-3 mm) and extending into deep structures; 4—massive tumor burden with involvement of 50-90% of the hemisphere cross section, with herniation. The sections were coded and graded simultaneously by two separate individuals without knowledge of treatment group. […]

[1] = tested on: Rat 9 L glioblastoma cells; assay: MTT assay of mitochondrial function in thymalfasin-treated 9 L cells; assay type: cell-based; conditions: 24 hours, various concentrations of thymalfasin, vs vehicle
Procedure: (§1) All cell lines were kept at 37° C. in a humidified atmosphere containing 5% CO2. The cell lines were obtained from the American Type Culture Collection and were certified as free of pathogens.
(§2) Thymosin alpha 1 treatment: For acute thymalfasin treatment, cells seeded in 96-well plates at a cell density of 20,000 cells/well were treated with 10^−5 M thymalfasin for 24 hours. Cells treated chronically with thymalfasin were grown in flasks and treated every 24 hours with 10^−5 M thymalfasin (added to fresh medium) for the duration of the treatment (3 days). In addition, for the determination of a dose-response curve to thymalfasin for 9 L cells, cells were treated with serially diluted amounts of thymalfasin, yielding thymalfasin concentrations ranging from 50 µM to […].
(§3) MTT assays were conducted on 9 L and 293 cell lines to determine the effects of thymalfasin treatment and/or H2O2-induced oxidative stress on the mitochondrial function of the cells. After treatment, 10 μl of MTT solution were added to each well containing 100 μl of medium. The plates were incubated with the MTT dye in the 37° C. incubator for 15 min-1 hour, depending on the cell type. The medium was then removed, and 200 μl of acidic Isopropanol was added to each well. The plates were shaken at room temperature until cell lysis occurred, and then read in a Packard SpectraCount™ machine at 540 nm.

[2] = cited from earlier work
[3] = tested on: Primary neuronal cortical cells; assay: Cell viability of primary cortical neuron cultures (CV and MTT); assay type: cell-based
Description: Primary cortical neuron cultures were studied to enable selection of thymalfasin doses that would not be toxic to non-neoplastic brain cells.
However, this dose is higher than established experimental and clinical dosages.

293 human kidney cells = assay: Microtiter immunocytochemical ELISA (MICE) assay of pro-apoptosis/survival gene products, 293 cells; assay type: cell-based
Procedure: (§4) Microtiter Immunocytochemical ELISA (MICE) Assays (de la Monte, 1999) were done on 9 L and 293 cells. Cells were seeded in 96-well plates, treated with 10^−5M thymalfasin for 24 hours, and histofixed overnight prior to analysis using MICE assay. the fixed cells were permeabilized with 0.05% saponin in Tris-buffered saline (50 mM Tris, pH 7.5, 0.9% NaCl; TBS), blocked with Superblock-TBS (Pierce, Rockford, Ill.), and then incubated overnight at 4° C. with primary antibodies to proliferating cell nuclear antigen (PCNA), bcl-2, p21/Wwaf-1, p53, FasL, FasR, TNF-R1, or GAPDH, each diluted to 0.5-1 μg/ml in TBS containing 0.05% Tween-20 and 0.5% bovine serum albumin (TBST-BSA). Immunoreactivity was detected using horseradish peroxidase conjugated secondary antibody (Pierce, Rockford, Ill.) and the TMB soluble substrate (Pierce, Rockford, Ill.). Reactions were stopped by the addition of 1 M H2SO4 and absorbances were measured at 450 nm in a Spectracount microplate reader (Packard Instrument Co., Meriden, Conn.). Subsequently, cell density was measured by staining the adherent cells with Coomassie blue dye and measuring the absorbance of the eluted dye (de la Monte, 1999). The MICE index was the calculated ratio of TMB and Coomassie blue absorbance measured in the same culture well. Mean±S.D. of results obtained from 16 replicate culture wells were used for inter-group statistical comparisons.
(§5) In this regard, the expression of gene products that promote either apoptosis or cell survival were examined, using housekeeping gene expression as control. The studies were performed in 96-well plates using the microtiter immunocytochemical ELISA […] assay to generate data from multiple replicate cultures. […] Thus, the results of the MICE assays indicate that for the two cell lines, thymalfasin works via different pathways to increase the susceptibility of the cells to cell death by apoptosis.

9 L glioblastoma cells [4] = assay: Microtiter immunocytochemical ELISA (MICE) assay of pro-apoptosis/survival gene products, 9 L cells; assay type: cell-based, rat
Procedure: as §4, §5

[5] = tested on: Rat 9 L glioblastoma cells; assay: Crystal violet (CV) cell viability assay in thymalfasin-treated 9 L cells; assay type: cell-based; conditions: thymalfasin vs vehicle-treated control
Procedure: as §1, §2
Crystal Violet (CV) was also used to stain cells in 96-well plates. After discarding the medium, 20 μl of crystal violet was added to each well and shaken at room temperature for 10 minutes. The plates were then washed several times with warm water and dried. 100-200 μl (depending on cell density) of PBS w/1% SDS was added to each well. The plates were incubated at room temperature on a shaker until the cells were sufficiently lysed. The plates were read at 540 nm to detect differences in cell viability between the various groups tested.

9 L glioblastoma cells [6] = assay: H2O2-induced oxidative stress sensitivity of thymalfasin-treated 9 L cells (MTT); assay type: cell-based, rat
Procedure: H2O2 was used with cells to induce oxidative stress. […] In the experiments in which serially diluted amounts of thymalfasin were administered to the cells, a constant amount of the […] H2O2 was used to treat the cells. For 9 L cells, an H2O2 curve was developed in order to determine the correct H2O2 concentration with which to treat the cells.
as §3
Validation of the ability of thymalfasin to increase the susceptibility of 9 L and 293 cells to apoptosis was sought testing H2O2-induced oxidative stress. As determined through MTT assays, 9 L cells treated with thymalfasin for 24 hours and subsequently H2O2 for 24 hours did indeed show significant loss in viability in comparison to 9 L cells treated only with H2O2 for 24 hours (FIG. 3).

9 L glioblastoma cells [7] = assay: Streptolysin O + recombinant Granzyme B killing assay (ATPlite viability); assay type: cell-based, rat; conditions: thymalfasin 24 h (acute) or 72 h (chronic), then SLO+Granzyme B 1 or 3 hours, p<0.001
Procedure: In order to determine the differential susceptibility of 9 L glioblastoma cells treated (or not) with thymalfasin to cytotoxic T-lymphocyte (CTL) induced apoptosis, experimental assays were conducted in which 9 L cells were treated both acutely for 24 hours and chronically for 72 hours with thymalfasin, after which they were harvested, re-seeded into 96-well black plates (7.5×10^5 cells/75 μl/well), and exposed to 20,000 units/ml Streptolysin O (SLO) plus 100 ng recombinant Granzyme B (reaction volume 100 μl) for 1 or 3 hours at 37° C. The SLO was used in place of perforin to permeabilize the cells, and recombinant Granzyme B was used to standardize the assay. Control studies included parallel reactions in which SLO, Granzyme B, or both were omitted. Viable cell density was measured using the ATPlite assay (Packard Instrument Company, Meriden, Conn.) which has a broad linear dynamic range correlating relative light units with cell densities between 10^3 to 10^6 cells per culture well.
In vivo, malignant neoplastic cells are killed by cytotoxic T cells and macrophages that are recruited by pro-inflammatory cytokines such as IL-2 and IL-12. […] Viability was measured using the ATP luminescence assay and within group comparisons were made to determine the relative killing associated with SLO+Granzyme B treatment. […]

9 L glioblastoma cells [8] = assay: BCNU-mediated killing of thymalfasin-treated 9 L cells; assay type: cell-based, rat; conditions: 24 or 72 hours thymalfasin treatment
[9] = 10^-5 M thymalfasin, 24 hours, P<0.01

O=NN(CCCl)C(=O)NCCCl [BCNU, bischloroethyl nitrosurea]
reduction of tumor burden in responding animals (9 L glioblastoma; BCNU 9.4 mg/kg I.P. single dose, nearly half the group showed no response): up to 50%
lympho-mononuclear inflammatory cell infiltrates in brain (9 L glioblastoma): scant

Thymosin α-1 (SDAAVDTSSEITTKDLKEKKEVVEEAEN; ends and bridges not checked; UniProt P06454 2-29, looked up) [thymalfasin, 28-amino acid peptide, a synthetic form of a naturally occurring compound that is found in circulation]
cell mitochondrial functioning (MTT) [1]: minimal effect; also recorded: insignificant decrease; also recorded: no direct effect
dose found to be safe for humans [2]: ≤ 16 mg/kg body weight/day
tumor burden / tumor growth (9 L glioblastoma; Long Evans rats, 10,000 9 L cells intracerebral, I.P. treatment from day 6, sacrifice day 20, BCNU 9.4 mg/kg, thymalfasin 45 or 200 μg/kg): the same as control or worse
lympho-mononuclear inflammatory cell infiltrates in brain (9 L glioblastoma): conspicuous
intracerebral swelling and herniation (9 L glioblastoma; rat, in vivo): extreme intracerebral swelling
decrease in viability (MTT) of primary neuronal cortical cells ([3]; highest concentration of thymalfasin used (3.3×10^−7M as printed)): 30%
cell viability of primary neuronal cortical cells ([3]; serial dilutions, 3.3×10^−5 M to 1×10^−9 M, experimental doses): no decrease in cell viability
change in FasL expression (293 human kidney cells; data not shown): no significant changes
change in FasR expression (293 human kidney cells; data not shown): no significant changes
change in TNF-R1 expression (293 human kidney cells; data not shown): no significant changes
reduction in bcl-2 (293 human kidney cells; thymalfasin, P<0.01, data not shown): 36.67%
increase in FasL level relative to vehicle-treated controls (9 L glioblastoma cells [4]; [9]): 65.89%
increase in FasR level relative to vehicle-treated controls (9 L glioblastoma cells [4]; [9]): 44.08%
increase in TNF-R1 level relative to vehicle-treated controls (9 L glioblastoma cells [4]; [9]): 22.18%
GAPDH expression level (9 L glioblastoma cells [4]; thymalfasin 24 hours): not significantly affected
bcl-2 expression level (9 L glioblastoma cells [4]; thymalfasin 24 hours): not significantly affected
cell viability / direct cytotoxic effect [5]: minimal effect; also recorded: no significant direct cytotoxic effects; also recorded: no direct effect
decrease in mitochondrial functioning (MTT) vs cells treated only with H2O2 (9 L glioblastoma cells [6]; 9 L cells, thymalfasin 24 hours then 270 μM H2O2 24 hours): 26.6%
9 L cells killed by ordinarily non-lethal (sub-lethal) H2O2 after thymalfasin treatment (9 L glioblastoma cells [6]; 24 or 72 hours thymalfasin treatment): 25% and 30-50%
cell viability after SLO+Granzyme B relative to SLO, Granzyme B or vehicle alone (9 L glioblastoma cells [7]): significant reductions in cell viability
9 L cells killed by sub-lethal concentrations of BCNU after thymalfasin treatment (9 L glioblastoma cells [8]): 40%
